Reference: paper PMC10686834, “Targeting myeloid chemotaxis to reverse prostate cancer therapy resistance” (Nature, 2023)

Experiments:
[1] = Pharmacokinetics of AZD5069 in plasma, non-compartmental analysis (AUClast, Cmax); type: in vivo, human
Method: Specific pharmacokinetic collection time points are listed in the study protocol. Pharmacokinetic parameters were calculated using non-compartmental analysis (Phoenix v.8.1, Certara). Fresh tumour needle core biopsies from matched disease sites (lymph node, bone and soft tissue) were collected at baseline (within 1 week of treatment commencement) and approximately 2 weeks after starting AZD5069 in patients when this was deemed safe and feasible. Tumour biopsies were obtained from 18 patients under computerized tomography or ultrasound guidance by an experienced interventional radiologist (N.T.). […] One patient had only a baseline tumour biopsy. Two patients underwent on-treatment biopsies after 4 weeks. Immediately after biopsy, tumour samples were immersed in 10% neutral-buffered formalin for 24 hours. Samples were processed through paraffin wax for histologic examination. Three 3 μm sections of formalin-fixed paraffin-embedded (FFPE) tumour biopsy were stained with haematoxylin and eosin to confirm the presence of tumour by a pathologist (B.G.). Tumour samples with insufficient tumour content or significant crushed artefact were excluded from analyses (B.G.). Baseline FFPE samples were analysed by IHC, and pre- and post-treatment FFPE biopsies were analysed by IF and targeted RNA profiling using HTG EdgeSeq. All samples that failed initial analyses by IF were restained at least once. A list of tumour samples and their methods of analyses are detailed in Supplementary Table 4.

[2] = system: patients with ARSI-resistant mCRPC; test: Phase 1 trial of AZD5069 plus enzalutamide: antitumour activity (RECIST v.1.1, PSA, CTC count); type: in vivo, human
Text: Patients needed to be on treatment for at least 12 weeks to be considered a responder. Thirteen patients had assessable measurable disease by Response Evaluation Criteria in Solid Tumors v.1.1. […] All patients classed as partial responders had radiologic progression-free survival of more than 6 months. […] Three of four patients classed as partial responders, for whom pre-treatment tissue biopsy was available for androgen receptor splice variant 7 (AR-V7) immunohistochemistry (IHC) including the patient who received only abiraterone previously, had tumour expressing AR-V7 protein.
Radiologic tumour responses were measured by computerized tomography of the thorax, abdomen and pelvis, bone scan, and, where indicated, whole-body magnetic resonance imaging, at baseline, once every 3 cycles, and then at the end of treatment if this was more than 8 weeks since the last scan. PSA and CTC count were measured at baseline, and then on day 1 of every cycle, and at the end of treatment. CTC counts were analysed using previously described methods.
Secondary endpoints were:(i) the rate of objective response, with objective response defined as confirmed soft tissue objective response by Response Evaluation Criteria in Solid Tumors v.1.1 in those with measurable disease, and/or PSA decline ≥50% confirmed 4 weeks or later, and/or CTC count conversion from ≥5 per 7.5 ml of blood at baseline to <5 per 7.5 ml of blood at nadir; (ii) pharmacokinetic parameters, including maximum concentration, area under the concentration–time curve; and (iii) pharmacodynamic changes including identifying patients whose blood NLR, neutrophil, and intratumour myeloid cell density decrease. Exploratory endpoints included blood cytokine levels and evaluation of tumour molecular profile on response.
Sample size was chosen pragmatically. According to the rule-based 3 + 3 design, which guided dose-escalation decisions, the cohort size was three patients and skipping of dose levels was not allowed. Patients who completed the DLT period or experienced a DLT during the DLT period were considered part of the evaluable population. Patients who received at least one dose of study drug were considered part of the safety population. To be evaluable for response, the patient must have met the eligibility criteria, received at least three cycles of trial medication, and have had baseline assessment of disease. Comparisons of baseline characteristics between patients classed as responders and those classed as non-responders were carried out using the two-sided Mann–Whitney U-test. Comparisons of paired pharmacokinetic and pharmacodynamic parameters were carried out using the two-sided paired Wilcoxon signed-rank test. Safety variables and pharmacokinetic and pharmacodynamic endpoints were summarized descriptively.

monkey [3] = settings: in vivo; cited from earlier work
monkey [4] = settings: in vivo; cited from earlier work; remark: listed apart in the source
P-glycoprotein (P-gp) = system: P-glycoprotein (P-gp); set-up: method as in AZD5069 Investigator Brochure (IB); settings: at concentrations of up to 100 μmol/L; ref AZD5069 Investigator Brochure (IB); cited from earlier work
rat = settings: 1-month and 6-month rat studies; ref AZD5069 Investigator Brochure (IB); cited from earlier work
CYP2A6 = system: CYP2A6; set-up: method as in AZD5069 Investigator Brochure (IB); settings: at concentrations of up to 100 μmol/L; ref AZD5069 Investigator Brochure (IB); cited from earlier work
[5] = partial responder at AZD5069 80 mg BD
[6] = first partial responder at AZD5069 160 mg BD, at nadir (3–4 months)
[7] = partial responder at AZD5069 120 mg BD
[8] = second responder at AZD5069 160 mg BD

## C[C@@H](Oc1cc(NS(=O)(=O)N2CCC2)nc(SCc2cccc(F)c2F)n1)[C@@H](O)CO [AZD5069]
[1]; AZD5069 monotherapy day 15, 40 to 160 mg BD
  AZD5069 exposure (AUClast and Cmax) at steady state versus dose: increased in a dose-dependent manner
[1]; combination (28 days) versus monotherapy (14 days), particularly at the higher dose levels
  AZD5069 exposure (AUClast) with enzalutamide: decreased after the addition of enzalutamide
[1]; [5]
  drug exposure (AUClast and Cmax): comparable to those of patients treated at 160 mg BD
[2]; 21 response-evaluable patients, all dose levels, plus enzalutamide
  objective partial response rate (RECIST v.1.1 ≥30% decrease, PSA decline ≥50% and/or CTC conversion): 24%
[2]; Patient 4 (as per Fig. 4a), C1D1
  CTC count: 5 CTC/7.5 ml blood
[2]; Patient 4, C1D15
  CTC count: 2 CTC/7.5 ml blood
[2]; Patient 4, C2D1
  CTC count: 1 CTC/7.5 ml blood
[2]; Patient 4, C3D1
  CTC count: 5 CTC/7.5 ml blood
[2]; Patient 4, C4D1
  CTC count: 3 CTC/7.5 ml blood
[2]; Patient 4, C5D1
  CTC count: 5 CTC/7.5 ml blood
[2]; Patient 4, C6D1
  CTC count: 5 CTC/7.5 ml blood
[2]; Patient 4, C7D1
  CTC count: 3 CTC/7.5 ml blood
[2]; Patient 4, C8D1
  CTC count: 12 CTC/7.5 ml blood
[2]; Patient 4, C9D1
  CTC count: 14 CTC/7.5 ml blood
[2]; Patient 4, C10D1
  CTC count: 33 CTC/7.5 ml blood
[2]; Patient 4, C11D1
  CTC count: 34 CTC/7.5 ml blood
[2]; Patient 4, C12D1
  CTC count: 57 CTC/7.5 ml blood
[2]; Patient 4, C13D1
  CTC count: 52 CTC/7.5 ml blood
[2]; Patient 4, C14D1
  CTC count: 53 CTC/7.5 ml blood
[2]; Patient 4, C15D1
  CTC count: 96 CTC/7.5 ml blood
[2]; Patient 4, C16D1
  CTC count: 235 CTC/7.5 ml blood
[2]; Patient 4, C17D1
  CTC count: 86 CTC/7.5 ml blood
[2]; Patient 4, C18D1
  CTC count: 97 CTC/7.5 ml blood
[2]; Patient 4, Treatment Discontinuation
  CTC count: 119 CTC/7.5 ml blood
[2]; Patient 10 (as per Fig. 4a), C1D1
  CTC count: 39 CTC/7.5 ml blood
[2]; Patient 10, C1D15
  CTC count: 26 CTC/7.5 ml blood
[2]; Patient 10, C2D1
  CTC count: 19 CTC/7.5 ml blood
[2]; Patient 10, C3D1
  CTC count: 0 CTC/7.5 ml blood
[2]; Patient 10, C4D1
  CTC count: 10 CTC/7.5 ml blood
[2]; Patient 10, C5D1
  CTC count: 46 CTC/7.5 ml blood
[2]; Patient 10, C9D1
  CTC count: 101 CTC/7.5 ml blood
[2]; Patient 10, Treatment Discontinuation
  CTC count: 129 CTC/7.5 ml blood
[2]; all five partial responders
  radiologic progression-free survival of patients classed as partial responders: more than 6 months
[2]; first partial responder at AZD5069 160 mg BD
  radiologic progression-free survival: 8 months
[2]; [6]
  PSA fall: 84%
  decrease in nodal disease: 20%
[2]; first partial responder at AZD5069 160 mg BD, at nadir, from 344 ng ml^−1
  PSA on treatment: 55 ng/mL
[2]; [5]
  duration of CTC conversion: seven
  time on trial: 16 months
[2]; partial responder at AZD5069 80 mg BD, at cycle 2, baseline 9
  CTC count: 1 per 7.5 ml of blood
[2]; [7]
  duration of radiologic and clinical responses: 11 months
  reduction of measurable disease: 31%
[2]; partial responder at AZD5069 120 mg BD, after 5 cycles
  PSA fall: 89%
[2]; partial responder at AZD5069 120 mg BD, after 5 cycles, from 98 ng ml^−1
  PSA on treatment: 11 ng/mL
[2]; partial responder at AZD5069 320 mg BD
  time to new bone metastases: 8 months
[2]; partial responder at AZD5069 320 mg BD, after four cycles
  PSA reduction: 64%
[2]; partial responder at AZD5069 320 mg BD, after four cycles, from 129 ng ml^−1
  PSA on treatment: 47 ng/mL
[2]; [8]
  PSA change: no PSA decrease
  radiologic progression-free survival: 8 months
[2]; second responder at AZD5069 160 mg BD, during cycle 1, baseline 11
  CTC count, peak: 39 per 7.5 ml of blood
[2]; second responder at AZD5069 160 mg BD, during cycle 4
  CTC count: 0 per 7.5 ml of blood
Monkey [3]
  NOAEL: 262.5 mg/kg BD
Monkey [4]
  tolerated single doses (maximum feasible dose): ≤ 350 mg/kg BD
P-glycoprotein (P-gp)
  inhibition of P-glycoprotein (P-gp): not an inhibitor
rat
  dose with enlarged mandibular lymph nodes in both sexes: ≥ 40 mg/kg BD
CYP2A6
  inhibition of CYP2A6: not an inhibitor
